“And” between values parts separate entries of the source, which are not always exact repeats. Equal values may be shown once.

What all share (assay type): cell-based
In test [1] the target is T1, CFTR-S549N (Homo sapiens, UniProt P13569, S549N).
T1 construct: expressed in transfected cells
Briefly: YFP-halide influx assay for the CFTR-S549N. Conditions: CFTR-S549N mutant; read-out: EC50 measured by YFP-halide influx assay for the CFTR-S549N. Summed up: (§1)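 HEK293 cells reverse-transfected with mutant CFTR and halide-sensitive YFP H148Q/I152L/F47L reporter, then expressed 24 h at 37 °C, 5% CO2. Fluorescence quenching recorded for 7 s after I^− injection; response expressed as 1−F/F0, with EC50 derived from response versus compound concentration.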

Test [2] addresses T2, CFTR-R117H (Homo sapiens, UniProt P13569, R117H).
T2 construct: expressed in transfected cells
As to the kind of experiment: YFP-halide influx assay for the CFTR-R117H. The conditions noted are these: CFTR-R117H mutant; read-out: EC50 measured by YFP-halide influx assay for the CFTR-R117H. Summed up: as §1

Test [3] concerns the target T3, CFTR-G178R (Homo sapiens, UniProt P13569, G178R).
T3 construct: expressed in transfected cells
As to the kind of experiment: YFP-halide influx assay for the CFTR-G178R. Conditions: read-out: EC50 measured by YFP-halide influx assay for the CFTR-G178R. Summed up: as §1

The target in test [4] is T4, CFTR G551D mutant (Homo sapiens, UniProt P13569, G551D).
T4 construct: expressed in transfected cells; host or cells: HEK293 (reverse transfection with plasmids)
Briefly: YFP-halide influx assay for the CFTR-G551D mutation (HEK293 cells). Conditions: HEK293 cells expressing CFTR G551D and YFP reporter; forskolin 10.67 μM; read-out: EC50 measured by YFP-halide influx assay for the CFTR-G551D. Summed up: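 HEK293 cells reverse-transfected with CFTR G551D and halide-sensitive YFP, expressed 24 h at 37 °C. Iodide-induced fluorescence quench recorded for 7 s after I^− injection; response as 1−F/F0, EC50 from concentration plot.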

The target of test [5] is T5, CFTR-G1349D (Homo sapiens, UniProt P13569, G1349D).
T5 construct: expressed in transfected cells
Briefly: YFP-halide influx assay for the CFTR-G1349D. The conditions noted are these: CFTR-G1349D mutant; read-out: EC50 measured by YFP-halide influx assay for the CFTR-G1349D. Summed up:
as §1

In test [6] the target is T6, CFTR ΔF508 mutant (Homo sapiens, UniProt P13569, DEL508-508).
T6 construct: expressed in transfected cells; host or cells: CFBE41o- (adenoviral transduction)
Briefly: YFP-halide influx assay for the CFTR-ΔF508 mutation (96 well, CFBE41o- cells). Conditions: compounds of the invention, 96 well, forskolin 10.67 μM, read-out: EC50 measured by YFP-halide influx assay for the CFTR-ΔF508. The gist of the method:
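CFBE41o- cells were adenovirally transduced with CFTR ΔF508 and the halide-sensitive YFP H148Q/I152L. They were then corrected either at 27 °C for 24 h or with a CFTR modulator for 24 h at 37 °C. After iodide injection, YFP quenching over 7 s was expressed as 1−F/F0, and EC50 was derived from the concentration–response plot.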

The target in test [7] is CFTR G551D (Homo sapiens, UniProt P13569, G551D). Briefly: TECC assay, FRT cells stably transfected with G551D CFTR. Conditions: high expression CFTR-G551D cells, several values in a cell = repeat determinations. The method, then:
7.2.3. FRT-CFTR G551D Protocol
For G551D recordings, Fish Rat Thyroid (FRT) cells stably transfected with G551D CFTR (a low CFTR-G551D expressing cell line and a high expressing CFTR-G551D cell line from Rosalind Franklin University of medicine and science, Chicago, Ill.) are plated on Transwell supports (Costar 6.5 mm Diameter, […]). The cells are grown for 8-10 d under liquid-liquid interface conditions prior to electrophysiological readings. For electrophysiological recording, the FRT-G551D cells are mounted in the TECC heating plate for electrophysiological measurement and kept at 37° C. The epithelia are bathed in hepes buffered culturing medium without FBS on both the basolateral and apical sides. Apical amiloride is used to inhibit the endogenous ENaC currents while forkolin is applied on both apical and basolateral side to stimulate CFTR. After forskolin triggering, compounds are added on both sides to test their potential for increasing CFTR gating. Measurements are done during a 10 minute timeframe with recordings every 2 min. The increase in ISC is used as a measure for the increased CFTR activity, EC50 values can be generated by measuring impact of different concentrations of compound on ISC on the cells, for this purpose each transwell is treated with a different compound concentration. Inh-172, an inhibitor specific for CFTR, is used to test the specificity of the tested compounds.
When subjected to this protocol, the following EC50 are measured.

T6 sequence (P13569 with tags, fused parts or gaps DEL508-508): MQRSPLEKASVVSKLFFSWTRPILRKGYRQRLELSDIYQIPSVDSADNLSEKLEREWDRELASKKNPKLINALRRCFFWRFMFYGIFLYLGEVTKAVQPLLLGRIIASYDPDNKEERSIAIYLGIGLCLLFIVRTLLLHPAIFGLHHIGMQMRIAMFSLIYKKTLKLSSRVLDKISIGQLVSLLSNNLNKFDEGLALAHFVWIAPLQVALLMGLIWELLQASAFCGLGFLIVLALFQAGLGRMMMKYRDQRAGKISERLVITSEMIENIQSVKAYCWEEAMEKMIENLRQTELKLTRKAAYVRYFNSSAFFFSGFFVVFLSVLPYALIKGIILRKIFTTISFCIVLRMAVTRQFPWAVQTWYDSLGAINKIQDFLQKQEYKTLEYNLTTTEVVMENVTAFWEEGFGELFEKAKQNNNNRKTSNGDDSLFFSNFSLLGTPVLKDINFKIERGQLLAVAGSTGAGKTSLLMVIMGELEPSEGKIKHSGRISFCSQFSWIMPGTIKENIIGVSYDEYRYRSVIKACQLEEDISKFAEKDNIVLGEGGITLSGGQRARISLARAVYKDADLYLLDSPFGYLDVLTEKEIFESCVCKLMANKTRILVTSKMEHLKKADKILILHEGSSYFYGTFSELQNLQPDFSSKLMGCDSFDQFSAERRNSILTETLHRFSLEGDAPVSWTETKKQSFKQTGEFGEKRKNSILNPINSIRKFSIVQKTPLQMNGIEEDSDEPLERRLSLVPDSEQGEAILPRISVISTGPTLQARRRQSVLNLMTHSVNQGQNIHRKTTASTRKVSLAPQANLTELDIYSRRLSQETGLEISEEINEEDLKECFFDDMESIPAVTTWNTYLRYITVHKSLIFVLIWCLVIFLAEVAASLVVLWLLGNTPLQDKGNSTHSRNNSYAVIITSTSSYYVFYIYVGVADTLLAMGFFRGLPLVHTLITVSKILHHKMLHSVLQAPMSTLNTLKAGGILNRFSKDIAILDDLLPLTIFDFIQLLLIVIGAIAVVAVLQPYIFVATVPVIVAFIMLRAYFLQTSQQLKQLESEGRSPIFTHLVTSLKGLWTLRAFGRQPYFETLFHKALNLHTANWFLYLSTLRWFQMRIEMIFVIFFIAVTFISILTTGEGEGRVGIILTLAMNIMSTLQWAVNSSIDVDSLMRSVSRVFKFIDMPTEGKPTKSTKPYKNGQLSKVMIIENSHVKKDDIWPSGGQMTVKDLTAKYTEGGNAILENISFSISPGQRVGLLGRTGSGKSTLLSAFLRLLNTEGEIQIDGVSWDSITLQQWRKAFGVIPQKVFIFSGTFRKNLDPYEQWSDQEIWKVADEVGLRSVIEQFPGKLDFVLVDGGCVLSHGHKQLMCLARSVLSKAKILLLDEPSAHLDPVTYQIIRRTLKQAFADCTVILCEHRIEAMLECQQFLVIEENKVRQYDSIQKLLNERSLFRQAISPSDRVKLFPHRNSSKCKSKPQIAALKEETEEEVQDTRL
CFTR G551D, sequence (P13569 whole entry G551D): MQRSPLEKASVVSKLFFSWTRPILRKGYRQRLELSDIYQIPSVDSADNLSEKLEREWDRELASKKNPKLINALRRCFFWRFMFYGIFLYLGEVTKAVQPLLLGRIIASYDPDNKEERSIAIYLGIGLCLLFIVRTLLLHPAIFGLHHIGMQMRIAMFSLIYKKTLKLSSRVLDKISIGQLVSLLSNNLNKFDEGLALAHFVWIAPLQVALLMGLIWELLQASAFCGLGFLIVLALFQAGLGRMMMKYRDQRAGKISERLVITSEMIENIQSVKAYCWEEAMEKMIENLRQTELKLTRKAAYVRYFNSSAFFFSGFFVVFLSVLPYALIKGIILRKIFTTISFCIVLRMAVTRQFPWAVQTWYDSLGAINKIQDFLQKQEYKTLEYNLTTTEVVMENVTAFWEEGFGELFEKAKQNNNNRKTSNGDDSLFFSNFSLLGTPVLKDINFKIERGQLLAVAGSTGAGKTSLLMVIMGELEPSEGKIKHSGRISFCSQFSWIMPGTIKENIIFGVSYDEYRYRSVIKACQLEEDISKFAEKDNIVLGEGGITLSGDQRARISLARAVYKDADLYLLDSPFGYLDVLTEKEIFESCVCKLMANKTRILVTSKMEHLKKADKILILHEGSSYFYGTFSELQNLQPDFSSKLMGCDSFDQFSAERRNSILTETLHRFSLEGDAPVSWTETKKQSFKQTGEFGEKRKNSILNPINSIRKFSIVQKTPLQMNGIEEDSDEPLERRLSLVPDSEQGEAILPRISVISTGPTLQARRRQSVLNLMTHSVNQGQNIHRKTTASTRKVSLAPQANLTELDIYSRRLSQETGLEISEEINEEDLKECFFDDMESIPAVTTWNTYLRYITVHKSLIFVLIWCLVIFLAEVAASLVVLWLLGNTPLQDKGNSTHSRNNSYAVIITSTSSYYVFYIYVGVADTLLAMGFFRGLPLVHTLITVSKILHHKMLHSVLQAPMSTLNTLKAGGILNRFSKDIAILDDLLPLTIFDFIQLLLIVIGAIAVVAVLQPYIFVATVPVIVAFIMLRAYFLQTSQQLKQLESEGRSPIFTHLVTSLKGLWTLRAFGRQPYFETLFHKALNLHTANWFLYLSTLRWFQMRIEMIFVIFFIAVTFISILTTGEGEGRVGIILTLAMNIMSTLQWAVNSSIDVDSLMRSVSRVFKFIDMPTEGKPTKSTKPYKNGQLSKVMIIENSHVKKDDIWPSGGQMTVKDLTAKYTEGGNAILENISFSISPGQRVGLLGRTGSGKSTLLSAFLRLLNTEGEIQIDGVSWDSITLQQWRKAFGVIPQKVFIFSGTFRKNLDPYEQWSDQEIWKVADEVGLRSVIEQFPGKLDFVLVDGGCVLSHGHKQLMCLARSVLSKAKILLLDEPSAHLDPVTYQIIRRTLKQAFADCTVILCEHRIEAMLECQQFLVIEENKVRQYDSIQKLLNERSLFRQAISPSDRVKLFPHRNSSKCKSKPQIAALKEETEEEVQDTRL
T4 sequence (P13569 whole entry G551D): as above
T5 sequence (P13569 whole entry G1349D): as the sequence (P13569 whole entry G551D) above, with D551G, G1349D counted along it
T1 sequence (P13569 whole entry S549N): as the sequence (P13569 whole entry G551D) above, with S549N, D551G counted along it
T3 sequence (P13569 whole entry G178R): as the sequence (P13569 whole entry G551D) above, with G178R, D551G counted along it
T2 sequence (P13569 whole entry R117H): as the sequence (P13569 whole entry G551D) above, with R117H, D551G counted along it

As for `CC1(C)Cc2c(sc(NC(=O)c3ccn[nH]3)c2C(N)=O)C(C)(C)O1` [Compound 2, N-(3-carbamoyl-5,5,7,7-tetramethyl-5,7-dihydro-4H-thieno[2,3-c]pyran-2-yl)-1H-pyrazole-5-carboxamide], the EC50 (as a rule, the concentration at which the effect is half-maximal) worked out at 211 nM in test [1]; 166 nM in test [2]; 56.9 nM in test [3]; 500 nM in test [4]; 63.3 nM in test [5]; 10 nM in test [6]. Moreover, in test [7], the EC50 was 66.2 nM and 90.2 nM and 85 nM and 61.5 nM and 57.8 nM and 87.4 nM.
`CC1(C)Cc2c(sc(NC(=O)C3(CO)CC3)c2C(N)=O)C(C)(C)O1` [Compound 9, 2-(1-(hydroxymethyl)cyclopropanecarboxamido)-5,5,7,7-tetramethyl-5,7-dihydro-4H-thieno[2,3-c]pyran-3-carboxamide]: the EC50 stood at 902 nM in test [1]; 433 nM in test [2]; 699 nM in test [3]; 1000 nM in test [4]; 578 nM in test [5]; 28 nM in test [6]. The EC50 in test [7] was 361 nM and 527 nM and 695 nM and 400 nM and 511 nM.
For the molecule `CC1(C)Cc2c(sc(NC(=O)C(C)(C)CO)c2C(N)=O)C(C)(C)O1` [Compound 10, 2-(3-hydroxy-2,2-dimethylpropanamido)-5,5,7,7-tetramethyl-5,7-dihydro-4H-thieno[2,3-c]pyran-3-carboxamide], the EC50 in test [4] came out at 2650 nM; in test [6] it was 121 nM.
With `CC1(C)Cc2c(sc(NC(=O)C3(O)CC3)c2C(N)=O)C(C)(C)O1` [Compound 4, 2-(1-hydroxycyclopropanecarboxamido)-5,5,7,7-tetramethyl-5,7-dihydro-4H-thieno[2,3-c]pyran-3-carboxamide], the EC50 came out at 1340 nM in test [4] and 32 nM in test [6].
